In US20230346961A1, “GLP-1 AND GIP RECEPTOR CO-AGONISTS” (Novo Nordisk A/S, priority 2020, published 2023):
Where two headings read alike, the source gives them in different places. Starred links: 1 amine or outer side, 2 acyl side, 3 side chain; linkers in the order of their positions; H or OH if unused. Non-standard residues stand in square brackets, D forms with d. Residues, ends and D or L forms follow the SMILES beside them. Groups on a side chain read outwards from the residue. *: point of attachment. C20 diacid = O=C(O)CCCCCCCCCCCCCCCCCCC(=O)*; γGlu = O=C(O)[C@H](CCC(=O)[*:2])N[*:1]; εLys = N[C@@H](CCCCN[*:1])C(=O)[*:2]; Trx = NC[C@H]1CC[C@H](C(=O)O)CC1; Aib = CC(C)(N)C(=O)O

Tests used:
human GLP-1 receptor = human GLP-1 receptor (Homo sapiens, UniProt P43220); experiment: cell-based; conditions: hGLP-1R
mouse GLP-1 receptor = biological target: T1, mouse GLP-1 receptor (Mus musculus, UniProt O35659)
T1 sequence (O35659 22-463): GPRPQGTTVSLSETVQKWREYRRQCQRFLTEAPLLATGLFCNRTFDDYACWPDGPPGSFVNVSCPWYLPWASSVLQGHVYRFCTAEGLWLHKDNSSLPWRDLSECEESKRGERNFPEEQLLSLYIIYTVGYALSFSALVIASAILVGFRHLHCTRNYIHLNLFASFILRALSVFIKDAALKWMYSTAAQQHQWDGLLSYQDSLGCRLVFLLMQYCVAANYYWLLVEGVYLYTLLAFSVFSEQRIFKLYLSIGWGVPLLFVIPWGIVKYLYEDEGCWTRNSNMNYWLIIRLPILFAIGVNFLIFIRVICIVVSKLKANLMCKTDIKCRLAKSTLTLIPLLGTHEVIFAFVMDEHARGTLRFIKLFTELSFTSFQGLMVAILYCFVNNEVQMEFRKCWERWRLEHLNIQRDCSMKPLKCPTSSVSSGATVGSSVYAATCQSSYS

human glucagon receptor = human glucagon receptor (Homo sapiens, UniProt P47871); experiment: cell-based
Protocol: The in vitro functional potency is the measure of target receptor activation in a whole cell assay.
In vitro functional potency was determined by measuring the response of the target receptor in a reporter gene assay in individual cell lines. […] When the respective receptor is activated, it results in the production of cAMP, which in turn results in expression of the luciferase protein. When assay incubation is completed, luciferase substrate (luciferin) is added resulting in the enzymatic conversion of luciferin to oxyluciferin and producing bioluminescence. The luminescence is measured as the readout for the assay.
The cells lines used in these assays were BHK cells with BHKTS13 as a parent cell line. The cell lines were derived from a clone containing the CRE luciferase element and were established by further transfection with the respective receptor to obtain the relevant cell line.
The cells were cultured at 37° C. with 5% CO2 in Cell Culture Medium. They were aliquoted and stored in liquid nitrogen. The cells were kept in continuous culture and were seeded out the day before each assay.
GLP-1R and GcgR Cell Culture Medium consisted of DMEM medium with 10% FBS, 500 μg/mL G418, and 300 μg/mL hygromycin. GIPR Cell Culture Medium consisted of DMEM medium with 10% FBS, 400 μg/mL G418, and 300 μg/mL hygromycin. Assay Buffer consisted of DMEM w/o phenol red, 10 mM Hepes, 1×Glutamax, 1% ovalbumin, and 0.1% Pluronic F-68 with the addition of HSA at twice the final assay concentration.
• 1) Cells were plated at 5000 cells/well and incubated overnight in the assay plate. • 2) Cells were washed once in DPBS. • 3) Stocks of the test compounds and reference compounds in concentrations ranging from 100-300 μM were diluted 1:150 in Assay Buffer. Compounds were then diluted 1:10 in column 1 of a 96 deep well dilution plate and then carried across the row creating a 3.5 fold, 12 point dilution curve. • 4) Assay Buffer (50 μl aliquot) with or without HSA was added to each well in the assay plate. • 5) A 50 μl aliquot of compound or blank was transferred from the dilution plate to the assay plate containing the Assay Buffer with or without HSA. • 6) The assay plate was incubated for 3 h in a 5% CO2 incubator at 37° C. 7) The cells were washed once with DPBS. • 8) A 100 μl aliquot of DPBS was added to each well of the assay plate. • 9) A 100 μl aliquot of steadylite plus reagent (light sensitive) was added to each well of the assay plate. • 10) Each assay plate was covered with aluminum foil to protect it from light and shaken at 250 RPM for 30 min at room temperature. • 11) Each assay plate was read in a microtiter plate reader.
The data from the microtiter plate reader was first regressed in an Excel in order to calculate the x-axis, log scale concentrations based on the individual test compound's stock concentration and the dilutions of the assay. […] The software performs a non-linear regression (log(agonist) vs response). A minimum of two replicates was measured for each sample. The reported values are averages of the replicates.

[1] = Pharmacokinetic study in minipigs (terminal half-life after i.v. administration); format: in vivo; conditions: female, Göttingen, minipig, iv
Protocol: The purpose of this example is to determine the half-life in vivo of the derivatives of the present invention after i.v. administration to minipigs, i.e. the prolongation of their time in the body and thereby their time of action. This is done in a pharmacokinetic (PK) study, where the terminal half-life of the derivative in question is determined. By terminal half-life is generally meant the period of time it takes to […] certain plasma concentration, measured after the initial distribution phase. Female Göttingen minipigs were obtained from Ellegaard Göttingen Minipigs (Dalmose, Denmark) approximately 7-14 months of age and weighing from approximately 16-35 kg were used in the studies. The minipigs were housed individually and fed restrictedly once daily with SDS minipig diet (Special Diets Services, Essex, UK). After at 3 weeks of acclimatisation two permanent central venous catheters were implanted in vena cava caudalis in each animal. The animals were allowed 1 week recovery after the surgery, and were then used for repeated pharmacokinetic studies with a suitable wash-out period between successive derivative dosing. The animals were fasted for approximately 18 hours before dosing and from 0 to 4 hours after dosing, but had adlibitum access to water during the whole period. […] Blood samples (for example 0.8 mL) were collected in 8 mM EDTA buffer and then centrifuged at 4° C. and 1942 g for 10 minutes. Plasma was pipetted into Micronic tubes on dry ice and kept at -20° C. until analysed for plasma concentration of the compounds using ELISA, or a similar antibody-based assay, or LCMS. […] (Pharsight Inc., Mountain View, CA, USA), and the resulting terminal half-lives (harmonic mean) determined.

mouse GIP receptor = biological target: T2, mouse GIP receptor (Mus musculus, UniProt Q0P543); experiment: cell-based
T2 sequence (Q0P543 19-460): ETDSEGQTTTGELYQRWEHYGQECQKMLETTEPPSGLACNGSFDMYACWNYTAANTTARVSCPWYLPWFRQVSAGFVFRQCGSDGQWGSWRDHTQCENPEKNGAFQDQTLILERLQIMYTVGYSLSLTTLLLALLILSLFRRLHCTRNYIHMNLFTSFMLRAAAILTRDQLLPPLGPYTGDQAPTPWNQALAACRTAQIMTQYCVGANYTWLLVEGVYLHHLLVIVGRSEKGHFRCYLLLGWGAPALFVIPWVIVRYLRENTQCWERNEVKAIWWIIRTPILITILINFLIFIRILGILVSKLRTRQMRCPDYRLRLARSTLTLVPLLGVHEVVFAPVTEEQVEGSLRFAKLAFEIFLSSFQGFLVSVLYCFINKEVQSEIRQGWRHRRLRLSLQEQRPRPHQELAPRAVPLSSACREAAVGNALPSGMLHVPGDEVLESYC

[2] = in vivo, minipigs, i.v. administration, harmonic mean, read-out: Terminal half-life t1/2 (converted)

Chain of human GLP-1 receptor (P43220 24-463): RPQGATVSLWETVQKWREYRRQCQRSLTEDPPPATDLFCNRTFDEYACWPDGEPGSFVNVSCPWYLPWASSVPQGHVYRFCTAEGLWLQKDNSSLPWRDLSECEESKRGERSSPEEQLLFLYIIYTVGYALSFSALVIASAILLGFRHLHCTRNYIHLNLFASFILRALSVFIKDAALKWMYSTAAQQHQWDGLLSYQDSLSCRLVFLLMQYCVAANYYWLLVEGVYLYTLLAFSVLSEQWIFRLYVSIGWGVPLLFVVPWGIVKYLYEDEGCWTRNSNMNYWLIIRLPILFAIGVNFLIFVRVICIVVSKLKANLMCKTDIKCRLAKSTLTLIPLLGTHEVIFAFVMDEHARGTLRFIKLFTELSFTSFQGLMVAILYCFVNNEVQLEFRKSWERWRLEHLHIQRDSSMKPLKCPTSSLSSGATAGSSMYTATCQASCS
Chain of human glucagon receptor (P47871 26-477): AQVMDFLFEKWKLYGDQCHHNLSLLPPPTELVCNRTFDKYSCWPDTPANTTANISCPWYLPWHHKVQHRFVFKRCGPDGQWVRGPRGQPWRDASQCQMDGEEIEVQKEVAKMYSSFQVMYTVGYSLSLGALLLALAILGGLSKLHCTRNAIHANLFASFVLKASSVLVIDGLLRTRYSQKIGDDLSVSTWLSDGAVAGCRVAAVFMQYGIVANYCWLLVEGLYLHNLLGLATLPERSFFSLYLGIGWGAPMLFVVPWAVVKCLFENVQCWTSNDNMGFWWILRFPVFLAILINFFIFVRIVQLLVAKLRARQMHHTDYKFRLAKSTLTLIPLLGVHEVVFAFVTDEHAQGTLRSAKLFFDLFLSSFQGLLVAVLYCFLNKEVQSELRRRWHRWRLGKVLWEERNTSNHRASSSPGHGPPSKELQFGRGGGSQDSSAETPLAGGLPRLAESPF

| SMILES | EC50 (human GLP-1 receptor; CRE Luc 0% HSA EC50, 0% HSA) | EC50 (human GLP-1 receptor; CRE Luc 1% HSA EC50, 1% HSA) | EC50 (mouse GLP-1 receptor) | EC50 (human glucagon receptor) | half-life [1, 2] | EC50 (mouse GIP receptor) | half-life ([1]; in vivo) | half-life ([1]; plasma, minipigs, i.v. administration, harmonic mean, read-out: Terminal half-life t1/2 (converted)) |
| --- | --- | --- | --- | --- | --- | --- | --- | --- |
| CC[C@H](C)[C@H](NC(=O)[C@H](CO)NC(=O)[C@H](Cc1ccc(O)cc1)NC(=O)[C@H](CC(=O)O)NC(=O)[C@H](CO)NC(=O)[C@@H](NC(=O)[C@H](Cc1ccccc1)NC(=O)[C@@H](NC(=O)CNC(=O)[C@H](CCC(=O)O)NC(=O)C(C)(C)NC(=O)[C@@H](N)Cc1ccc(O)cc1)[C@@H](C)O)[C@@H](C)O)C(=O)N[C@@H](Cc1ccc(O)cc1)C(=O)N[C@@H](CC(C)C)C(=O)N[C@@H](CCC(=O)O)C(=O)N[C@@H](CCC(=O)O)C(=O)N[C@@H](CCC(N)=O)C(=O)N[C@@H](C)C(=O)N[C@@H](C)C(=O)NC(C)(C)C(=O)N[C@@H](CCCCNC(=O)[C@@H](N)CCCCNC(=O)[C@@H](N)CCCCNC(=O)CC[C@H](NC(=O)[C@H]1CC[C@H](CNC(=O)CCCCCCCCCCCCCCCCCCC(=O)O)CC1)C(=O)O)C(=O)N[C@@H](Cc1ccccc1)C(=O)N[C@H](C(=O)N[C@@H](CC(N)=O)C(=O)N[C@@H](Cc1c[nH]c2ccccc12)C(=O)N[C@@H](CC(C)C)C(=O)N[C@@H](CC(C)C)C(=O)N[C@@H](C)C(=O)NCC(=O)NCC(=O)N1CCC[C@H]1C(=O)N[C@@H](CO)C(=O)N[C@@H](CO)C(=O)NCC(=O)N[C@@H](C)C(=O)N1CCC[C@H]1C(=O)N1CCC[C@H]1C(=O)N1CCC[C@H]1C(=O)N[C@@H](CO)C(N)=O)C(C)C [Compound 19] (H-Y[Aib]EGTFTSDYSIYLEEQAA[Aib]K([εLys-εLys-γGlu-Trx-C20 diacid])FVNWLLAGGPSSGAPPPS-NH2; N-terminus assumed) | 0.0046 nM | 0.297 nM | 0.0055 nM | > 10 nM | 112 h | 0.134 nM |  |  |
| CC[C@H](C)[C@H](NC(=O)[C@H](CO)NC(=O)[C@H](Cc1ccc(O)cc1)NC(=O)[C@H](CC(=O)O)NC(=O)[C@H](CO)NC(=O)[C@@H](NC(=O)[C@H](Cc1ccccc1)NC(=O)[C@@H](NC(=O)CNC(=O)[C@H](CCC(=O)O)NC(=O)C(C)(C)NC(=O)[C@@H](N)Cc1ccc(O)cc1)[C@@H](C)O)[C@@H](C)O)C(=O)N[C@@H](Cc1ccc(O)cc1)C(=O)N[C@@H](CC(C)C)C(=O)N[C@@H](CCC(=O)O)C(=O)N[C@@H](CCCCNC(=O)[C@@H](N)CCCCNC(=O)[C@@H](N)CCCCNC(=O)CC[C@H](NC(=O)[C@H]1CC[C@H](CNC(=O)CCCCCCCCCCCCCCCCCCC(=O)O)CC1)C(=O)O)C(=O)N[C@@H](CCC(N)=O)C(=O)N[C@@H](C)C(=O)N[C@@H](C)C(=O)NC(C)(C)C(=O)N[C@@H](CCC(=O)O)C(=O)N[C@@H](Cc1ccccc1)C(=O)N[C@H](C(=O)N[C@@H](CC(N)=O)C(=O)N[C@@H](Cc1c[nH]c2ccccc12)C(=O)N[C@@H](CC(C)C)C(=O)N[C@@H](CC(C)C)C(=O)N[C@@H](C)C(=O)NCC(=O)NCC(=O)N1CCC[C@H]1C(=O)N[C@@H](CO)C(=O)N[C@@H](CO)C(=O)NCC(=O)N[C@@H](C)C(=O)N1CCC[C@H]1C(=O)N1CCC[C@H]1C(=O)N1CCC[C@H]1C(=O)N[C@@H](CO)C(N)=O)C(C)C [Compound 20] (H-Y[Aib]EGTFTSDYSIYLEK([εLys-εLys-γGlu-Trx-C20 diacid])QAA[Aib]EFVNWLLAGGPSSGAPPPS-NH2; N-terminus assumed) | 0.0033 nM | 0.261 nM | 0.0026 nM | > 10 nM | 88 h | 0.012 nM |  |  |
| CC[C@H](C)[C@H](NC(=O)[C@H](CO)NC(=O)[C@H](Cc1ccc(O)cc1)NC(=O)[C@H](CC(=O)O)NC(=O)[C@H](CO)NC(=O)[C@@H](NC(=O)[C@H](Cc1ccccc1)NC(=O)[C@@H](NC(=O)CNC(=O)[C@H](CCC(=O)O)NC(=O)C(C)(C)NC(=O)[C@@H](N)Cc1ccc(O)cc1)[C@@H](C)O)[C@@H](C)O)C(=O)N[C@@H](Cc1ccc(O)cc1)C(=O)N[C@@H](CC(C)C)C(=O)N[C@@H](CCC(=O)O)C(=O)N[C@@H](CCC(=O)O)C(=O)N[C@@H](CCC(N)=O)C(=O)N[C@@H](C)C(=O)N[C@@H](C)C(=O)NC(C)(C)C(=O)N[C@@H](CCCCNC(=O)[C@@H](N)CCCCNC(=O)[C@@H](N)CCCCNC(=O)CC[C@H](NC(=O)CCCCCCCCCCCCCCCCCCC(=O)O)C(=O)O)C(=O)N[C@@H](Cc1ccccc1)C(=O)N[C@H](C(=O)N[C@@H](CC(N)=O)C(=O)N[C@@H](Cc1c[nH]c2ccccc12)C(=O)N[C@@H](CC(C)C)C(=O)N[C@@H](CC(C)C)C(=O)N[C@@H](C)C(=O)NCC(=O)NCC(=O)N1CCC[C@H]1C(=O)N[C@@H](CO)C(=O)N[C@@H](CO)C(=O)NCC(=O)N[C@@H](C)C(=O)N1CCC[C@H]1C(=O)N1CCC[C@H]1C(=O)N1CCC[C@H]1C(=O)N[C@@H](CO)C(N)=O)C(C)C [Compound 27] (H-Y[Aib]EGTFTSDYSIYLEEQAA[Aib]K([εLys-εLys-γGlu-C20 diacid])FVNWLLAGGPSSGAPPPS-NH2; N-terminus assumed) | 0.0033 nM | 0.195 nM | 0.0042 nM |  |  | 0.545 nM | 88 h |  |
| CC[C@H](C)[C@H](NC(=O)[C@H](CO)NC(=O)[C@H](Cc1ccc(O)cc1)NC(=O)[C@H](CC(=O)O)NC(=O)[C@H](CO)NC(=O)[C@@H](NC(=O)[C@H](Cc1ccccc1)NC(=O)[C@@H](NC(=O)CNC(=O)[C@H](CCC(=O)O)NC(=O)C(C)(C)NC(=O)[C@@H](N)Cc1ccc(O)cc1)[C@@H](C)O)[C@@H](C)O)C(=O)N[C@@H](Cc1ccc(O)cc1)C(=O)N[C@@H](CC(C)C)C(=O)N[C@@H](CCC(=O)O)C(=O)N[C@@H](CCCCN)C(=O)N[C@@H](CCCCNC(=O)[C@@H](N)CCCCNC(=O)[C@@H](N)CCCCNC(=O)CC[C@H](NC(=O)CCCCCCCCCCCCCCCCCCC(=O)O)C(=O)O)C(=O)N[C@@H](C)C(=O)N[C@@H](C)C(=O)NC(C)(C)C(=O)N[C@@H](CCC(=O)O)C(=O)N[C@@H](Cc1ccccc1)C(=O)N[C@H](C(=O)N[C@@H](CCC(N)=O)C(=O)N[C@@H](Cc1c[nH]c2ccccc12)C(=O)N[C@@H](CC(C)C)C(=O)N[C@@H](CC(C)C)C(=O)N[C@@H](CCC(=O)O)C(=O)NCC(=O)NCC(=O)N1CCC[C@H]1C(=O)N[C@@H](CO)C(=O)N[C@@H](CO)C(=O)NCC(=O)N[C@@H](C)C(=O)N1CCC[C@H]1C(=O)N1CCC[C@H]1C(=O)N1CCC[C@H]1C(=O)N[C@@H](CO)C(N)=O)C(C)C [Compound 35] (H-Y[Aib]EGTFTSDYSIYLEKK([εLys-εLys-γGlu-C20 diacid])AA[Aib]EFVQWLLEGGPSSGAPPPS-NH2; N-terminus assumed) | 0.0022 nM | 0.169 nM | 0.0013 nM |  |  | 0.0213 nM |  | 90 h |
